{"source": "paper PMC7180948", "about": "“New Insights into 4-Anilinoquinazolines as Inhibitors of Cardiac Troponin I–Interacting Kinase (TNNi3K)” (Molecules, 2020)", "test_in_all_cases": "biochemical", "set-up_in_all_cases": "KINOMEscan competition binding panel (Eurofins DiscoverX), single concentration, percent inhibition", "conditions_in_all_cases": "read-out: 15 at 1 µM % inhibition", "key": {"[1]": {"target": "T1, ABL1(Y253F)-phosphorylated (Homo sapiens, UniProt P00519, Y253F)", "T1 construct": "phosphorylated", "procedure,_shortened": "(§1)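 Compounds were submitted at 1 µM to a KINOMEscan assay covering more than 400 human kinases. The screen served to define the selectivity profile.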"}, "CLK3": {"target": "CLK3 (Homo sapiens, UniProt P49761)", "procedure,_shortened": "as §1"}, "STK36": {"target": "STK36 (Homo sapiens, UniProt Q9NRP7)", "procedure,_shortened": "as §1"}, "ABL1-phosphorylated": {"target": "T2, ABL1-phosphorylated (Homo sapiens, UniProt P00519)", "T2 construct": "phosphorylated", "procedure,_shortened": "as §1"}, "ACVR2B": {"target": "ACVR2B (Homo sapiens, UniProt Q13705)", "sequence (Q13705 whole entry)": "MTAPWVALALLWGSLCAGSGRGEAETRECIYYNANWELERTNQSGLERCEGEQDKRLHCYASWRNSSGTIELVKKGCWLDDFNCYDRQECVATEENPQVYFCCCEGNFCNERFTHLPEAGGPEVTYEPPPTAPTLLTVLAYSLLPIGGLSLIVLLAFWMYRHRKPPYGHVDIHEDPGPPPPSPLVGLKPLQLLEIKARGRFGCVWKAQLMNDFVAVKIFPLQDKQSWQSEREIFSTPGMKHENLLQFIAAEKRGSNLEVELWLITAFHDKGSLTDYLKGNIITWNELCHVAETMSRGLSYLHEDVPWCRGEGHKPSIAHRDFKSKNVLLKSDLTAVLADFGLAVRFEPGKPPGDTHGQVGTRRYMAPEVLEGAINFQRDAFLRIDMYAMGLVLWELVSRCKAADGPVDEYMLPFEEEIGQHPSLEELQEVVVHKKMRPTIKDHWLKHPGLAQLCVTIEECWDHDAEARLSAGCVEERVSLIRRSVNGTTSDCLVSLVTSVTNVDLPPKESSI", "procedure,_shortened": "as §1"}, "MAP3K1": {"target": "MAP3K1 (Homo sapiens, UniProt Q13233)", "procedure,_shortened": "as §1"}, "TGFBR1": {"target": "TGFBR1 (Homo sapiens, UniProt P36897)", "procedure,_shortened": "as §1"}, "MEK6": {"target": "T3, MEK6 (Homo sapiens, UniProt P52564)", "T3 construct": "gene MAP2K6", "procedure,_shortened": "as §1"}, "PRKCQ": {"target": "PRKCQ (Homo sapiens, UniProt Q04759)", "sequence (Q04759 whole entry)": "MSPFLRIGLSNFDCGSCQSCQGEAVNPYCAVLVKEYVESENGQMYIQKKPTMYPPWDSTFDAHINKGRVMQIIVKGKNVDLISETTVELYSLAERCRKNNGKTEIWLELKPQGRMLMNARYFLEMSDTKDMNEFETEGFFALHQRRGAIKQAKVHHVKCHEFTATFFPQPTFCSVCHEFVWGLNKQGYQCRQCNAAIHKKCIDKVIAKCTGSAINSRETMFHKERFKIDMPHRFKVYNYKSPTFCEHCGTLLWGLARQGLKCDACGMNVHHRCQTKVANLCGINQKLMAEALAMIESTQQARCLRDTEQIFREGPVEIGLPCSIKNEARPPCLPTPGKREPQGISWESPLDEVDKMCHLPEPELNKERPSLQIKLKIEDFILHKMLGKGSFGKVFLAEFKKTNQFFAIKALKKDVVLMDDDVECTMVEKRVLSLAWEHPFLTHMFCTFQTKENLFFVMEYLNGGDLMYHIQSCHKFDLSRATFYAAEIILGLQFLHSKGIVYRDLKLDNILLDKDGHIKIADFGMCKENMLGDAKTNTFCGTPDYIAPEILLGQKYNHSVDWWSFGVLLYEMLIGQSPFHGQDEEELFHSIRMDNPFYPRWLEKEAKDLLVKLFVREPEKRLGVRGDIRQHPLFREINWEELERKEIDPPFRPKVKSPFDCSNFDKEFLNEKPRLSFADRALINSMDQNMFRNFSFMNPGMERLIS", "procedure,_shortened": "as §1"}, "MRCKA": {"target": "T4, MRCKA (Homo sapiens, UniProt Q5VT25)", "T4 construct": "gene CDC42BPA", "procedure,_shortened": "as §1"}, "EGFR(S752-I759del)": {"target": "EGFR(S752-I759del) (Homo sapiens, UniProt P00533, DEL752-759)", "procedure,_shortened": "as §1"}, "GAK": {"target": "GAK (Homo sapiens, UniProt O14976)", "sequence (O14976 whole entry)": "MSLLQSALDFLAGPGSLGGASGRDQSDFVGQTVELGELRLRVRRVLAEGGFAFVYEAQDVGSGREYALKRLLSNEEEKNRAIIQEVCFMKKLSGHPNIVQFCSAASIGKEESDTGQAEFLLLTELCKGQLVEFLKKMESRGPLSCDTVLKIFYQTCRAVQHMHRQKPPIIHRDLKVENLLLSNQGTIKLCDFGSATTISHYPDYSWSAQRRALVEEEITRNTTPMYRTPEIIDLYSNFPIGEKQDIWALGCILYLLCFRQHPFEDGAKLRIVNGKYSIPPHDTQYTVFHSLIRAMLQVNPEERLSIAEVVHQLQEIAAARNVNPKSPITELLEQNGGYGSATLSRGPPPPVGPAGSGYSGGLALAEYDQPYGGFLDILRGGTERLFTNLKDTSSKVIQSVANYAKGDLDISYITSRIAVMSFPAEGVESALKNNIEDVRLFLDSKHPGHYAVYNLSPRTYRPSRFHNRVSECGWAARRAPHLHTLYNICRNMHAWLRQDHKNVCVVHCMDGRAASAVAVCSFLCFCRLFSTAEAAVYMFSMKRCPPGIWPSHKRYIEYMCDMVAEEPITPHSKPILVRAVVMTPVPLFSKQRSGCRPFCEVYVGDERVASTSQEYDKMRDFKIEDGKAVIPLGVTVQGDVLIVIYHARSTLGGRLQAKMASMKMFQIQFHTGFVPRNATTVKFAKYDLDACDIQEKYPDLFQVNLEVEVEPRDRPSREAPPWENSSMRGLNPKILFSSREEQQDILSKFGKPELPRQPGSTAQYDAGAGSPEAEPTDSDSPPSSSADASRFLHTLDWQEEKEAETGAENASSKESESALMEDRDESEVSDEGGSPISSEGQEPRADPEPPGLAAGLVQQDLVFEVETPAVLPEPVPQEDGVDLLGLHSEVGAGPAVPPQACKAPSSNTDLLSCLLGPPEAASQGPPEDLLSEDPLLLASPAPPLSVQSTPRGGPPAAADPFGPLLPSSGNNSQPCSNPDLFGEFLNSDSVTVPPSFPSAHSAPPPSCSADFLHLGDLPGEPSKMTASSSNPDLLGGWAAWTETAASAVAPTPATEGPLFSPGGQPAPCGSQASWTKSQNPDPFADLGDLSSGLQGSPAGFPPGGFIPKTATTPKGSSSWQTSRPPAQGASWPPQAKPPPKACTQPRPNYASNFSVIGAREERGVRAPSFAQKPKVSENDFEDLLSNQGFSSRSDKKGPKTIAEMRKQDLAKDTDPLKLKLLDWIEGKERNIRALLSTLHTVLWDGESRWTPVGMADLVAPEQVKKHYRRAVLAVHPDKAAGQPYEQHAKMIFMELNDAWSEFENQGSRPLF", "procedure,_shortened": "as §1"}, "DYRK2": {"target": "DYRK2 (Homo sapiens, UniProt Q92630)", "procedure,_shortened": "as §1"}, "KIT(V559D)": {"target": "KIT(V559D) (Homo sapiens, UniProt P10721, V559D)", "sequence (P10721 whole entry V559D)": "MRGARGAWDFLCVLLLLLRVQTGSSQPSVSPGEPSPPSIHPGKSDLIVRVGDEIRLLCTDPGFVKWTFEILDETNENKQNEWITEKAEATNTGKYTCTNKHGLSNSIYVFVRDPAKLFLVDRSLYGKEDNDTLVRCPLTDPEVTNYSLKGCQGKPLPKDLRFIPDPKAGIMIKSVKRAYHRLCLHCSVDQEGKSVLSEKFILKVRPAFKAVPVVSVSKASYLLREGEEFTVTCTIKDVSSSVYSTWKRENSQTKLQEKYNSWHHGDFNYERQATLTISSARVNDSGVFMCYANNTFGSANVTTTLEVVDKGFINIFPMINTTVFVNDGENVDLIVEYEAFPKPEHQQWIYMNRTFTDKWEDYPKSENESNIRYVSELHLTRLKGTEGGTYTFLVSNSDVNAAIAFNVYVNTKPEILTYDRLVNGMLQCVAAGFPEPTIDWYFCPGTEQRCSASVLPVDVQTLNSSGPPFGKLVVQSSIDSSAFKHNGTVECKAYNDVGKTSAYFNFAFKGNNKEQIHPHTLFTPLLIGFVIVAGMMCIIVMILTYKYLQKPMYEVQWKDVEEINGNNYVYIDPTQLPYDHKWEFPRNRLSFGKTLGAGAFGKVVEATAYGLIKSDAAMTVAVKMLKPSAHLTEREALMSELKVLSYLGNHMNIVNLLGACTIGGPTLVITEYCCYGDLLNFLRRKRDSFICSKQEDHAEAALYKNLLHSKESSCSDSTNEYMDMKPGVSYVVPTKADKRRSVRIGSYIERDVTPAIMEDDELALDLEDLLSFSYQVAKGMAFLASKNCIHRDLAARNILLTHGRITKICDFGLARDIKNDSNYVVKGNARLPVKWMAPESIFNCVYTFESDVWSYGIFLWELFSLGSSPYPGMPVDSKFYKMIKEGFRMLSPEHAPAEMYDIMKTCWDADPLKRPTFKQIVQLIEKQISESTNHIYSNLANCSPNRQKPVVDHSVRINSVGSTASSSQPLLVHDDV", "procedure,_shortened": "as §1"}, "YANK2": {"target": "T5, YANK2 (Homo sapiens, UniProt Q9NY57)", "T5 construct": "gene STK32B", "procedure,_shortened": "as §1"}, "ZAK": {"target": "T6, ZAK (Homo sapiens, UniProt Q9NYL2)", "T6 construct": "gene MAP3K20", "procedure,_shortened": "as §1"}, "PRKX": {"target": "PRKX (Homo sapiens, UniProt P51817)", "sequence (P51817 whole entry)": "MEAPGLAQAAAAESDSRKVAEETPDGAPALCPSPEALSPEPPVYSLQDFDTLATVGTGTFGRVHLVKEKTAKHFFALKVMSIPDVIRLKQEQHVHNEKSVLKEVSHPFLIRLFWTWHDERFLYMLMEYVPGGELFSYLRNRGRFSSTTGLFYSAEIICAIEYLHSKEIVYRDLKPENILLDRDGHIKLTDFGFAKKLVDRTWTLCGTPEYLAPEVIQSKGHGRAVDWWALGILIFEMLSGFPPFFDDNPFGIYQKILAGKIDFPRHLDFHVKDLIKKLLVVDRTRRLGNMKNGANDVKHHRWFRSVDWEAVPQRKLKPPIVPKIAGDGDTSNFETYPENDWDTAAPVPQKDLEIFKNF", "procedure,_shortened": "as §1"}, "JNK1": {"target": "T7, JNK1 (Homo sapiens, UniProt P45983)", "T7 construct": "gene MAPK8", "procedure,_shortened": "as §1"}, "BMPR1A": {"target": "BMPR1A (Homo sapiens, UniProt P36894)", "procedure,_shortened": "as §1"}, "GCN2(Kin.Dom.2,S808G)": {"target": "T8, GCN2(Kin.Dom.2,S808G) (Homo sapiens, UniProt Q9P2K8, S808G)", "T8 construct": "gene EIF2AK4; Kin.Dom.2", "procedure,_shortened": "as §1"}, "PRKR": {"target": "T9, PRKR (Homo sapiens, UniProt P19525)", "T9 construct": "gene EIF2AK2", "procedure,_shortened": "as §1"}, "RET(M918T)": {"target": "RET(M918T) (Homo sapiens, UniProt P07949, M918T)", "sequence (P07949 whole entry M918T)": "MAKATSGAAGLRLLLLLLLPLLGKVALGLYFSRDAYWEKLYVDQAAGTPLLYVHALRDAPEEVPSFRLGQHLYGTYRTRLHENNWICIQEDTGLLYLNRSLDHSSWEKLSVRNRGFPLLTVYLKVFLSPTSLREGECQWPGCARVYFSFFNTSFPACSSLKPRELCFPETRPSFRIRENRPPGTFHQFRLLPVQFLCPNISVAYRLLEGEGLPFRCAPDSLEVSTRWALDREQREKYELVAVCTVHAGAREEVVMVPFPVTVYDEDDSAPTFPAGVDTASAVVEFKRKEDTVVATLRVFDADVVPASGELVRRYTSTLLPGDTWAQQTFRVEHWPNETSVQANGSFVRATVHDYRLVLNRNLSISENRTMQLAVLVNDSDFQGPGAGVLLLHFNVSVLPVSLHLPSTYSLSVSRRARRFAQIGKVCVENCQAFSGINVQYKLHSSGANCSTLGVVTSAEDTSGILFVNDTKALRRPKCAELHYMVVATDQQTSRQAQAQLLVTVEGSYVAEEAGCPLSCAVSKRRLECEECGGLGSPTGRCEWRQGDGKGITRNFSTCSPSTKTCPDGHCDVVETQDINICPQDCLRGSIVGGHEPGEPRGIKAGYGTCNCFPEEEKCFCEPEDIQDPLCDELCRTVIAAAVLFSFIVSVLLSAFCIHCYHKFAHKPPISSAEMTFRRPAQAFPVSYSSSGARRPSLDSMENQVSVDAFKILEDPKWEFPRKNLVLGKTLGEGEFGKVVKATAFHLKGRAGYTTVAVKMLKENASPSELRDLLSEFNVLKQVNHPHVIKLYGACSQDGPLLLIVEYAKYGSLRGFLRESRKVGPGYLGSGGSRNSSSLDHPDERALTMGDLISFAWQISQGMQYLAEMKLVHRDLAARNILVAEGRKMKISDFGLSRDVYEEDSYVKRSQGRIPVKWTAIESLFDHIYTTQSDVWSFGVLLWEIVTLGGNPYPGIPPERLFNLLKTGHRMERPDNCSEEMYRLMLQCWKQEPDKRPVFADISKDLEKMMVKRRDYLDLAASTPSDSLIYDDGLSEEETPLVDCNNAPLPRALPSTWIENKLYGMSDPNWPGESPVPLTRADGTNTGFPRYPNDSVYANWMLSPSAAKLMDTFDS", "procedure,_shortened": "as §1"}, "HCK": {"target": "HCK (Homo sapiens, UniProt P08631)", "procedure,_shortened": "as §1"}, "TRKA": {"target": "T10, TRKA (Homo sapiens, UniProt P04629)", "T10 construct": "gene NTRK1", "procedure,_shortened": "as §1"}}, "data": [{"smiles": "CNS(=O)(=O)c1ccc(N(C)C)c(Nc2nc(C)nc3cc(OC)c(OC)cc23)c1", "note": "[compound 15, 3-((6,7-dimethoxy-2-methylquinazolin-4-yl)amino)-4-(dimethylamino)-N-methylbenzenesulfonamide]", "values": [{"measurement": "inhibition at 1 µM", "setting": "[1]", "value": 18, "unit": "%"}, {"measurement": "inhibition at 1 µM", "setting": "CLK3", "value": 0, "unit": "%"}, {"measurement": "inhibition at 1 µM", "setting": "STK36", "value": 0, "unit": "%"}, {"measurement": "inhibition at 1 µM", "setting": "ABL1-phosphorylated", "value": 0, "unit": "%"}, {"measurement": "inhibition at 1 µM", "setting": "ACVR2B", "value": 0, "unit": "%"}, {"measurement": "inhibition at 1 µM", "setting": "MAP3K1", "value": 27, "unit": "%"}, {"measurement": "inhibition at 1 µM", "setting": "TGFBR1", "value": 0, "unit": "%"}, {"measurement": "inhibition at 1 µM", "setting": "MEK6", "value": 0, "unit": "%"}, {"measurement": "inhibition at 1 µM", "setting": "PRKCQ", "value": 16, "unit": "%"}, {"measurement": "inhibition at 1 µM", "setting": "MRCKA", "value": 0, "unit": "%"}, {"measurement": "inhibition at 1 µM", "setting": "EGFR(S752-I759del)", "value": 9, "unit": "%"}, {"measurement": "inhibition at 1 µM", "setting": "GAK", "value": 78, "unit": "%"}, {"measurement": "inhibition at 1 µM", "setting": "DYRK2", "value": 0, "unit": "%"}, {"measurement": "inhibition at 1 µM", "setting": "KIT(V559D)", "value": 0, "unit": "%"}, {"measurement": "inhibition at 1 µM", "setting": "YANK2", "value": 0, "unit": "%"}, {"measurement": "inhibition at 1 µM", "setting": "ZAK", "value": 1, "unit": "%"}, {"measurement": "inhibition at 1 µM", "setting": "PRKX", "value": 0, "unit": "%"}, {"measurement": "inhibition at 1 µM", "setting": "JNK1", "value": 14, "unit": "%"}, {"measurement": "inhibition at 1 µM", "setting": "BMPR1A", "value": 0, "unit": "%"}, {"measurement": "inhibition at 1 µM", "setting": "GCN2(Kin.Dom.2,S808G)", "value": 0, "unit": "%"}, {"measurement": "inhibition at 1 µM", "setting": "PRKR", "value": 7, "unit": "%"}, {"measurement": "inhibition at 1 µM", "setting": "RET(M918T)", "value": 0, "unit": "%"}, {"measurement": "inhibition at 1 µM", "setting": "HCK", "value": 4, "unit": "%"}, {"measurement": "inhibition at 1 µM", "setting": "TRKA", "value": 37, "unit": "%"}]}]}
